# Molecular target: Cdk9/cyclinT1 (Homo sapiens (Human), UniProt P50750)
# Test: Cdk9/CyclinT1 IMAP Protocol (fluorescence polarization kinase assay)
# Assay type: biochemical
# Conditions: Table 2; generated using one of the two Cdk9/cyclinT1 assays (IMAP or Alpha Screen), not specified which; unit inferred
# Outline: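 Reaction used 4 nM Cdk9/cyclinT1, 100 nM 5TAMRA-cdk7tide peptide and 6 uM ATP in 100 mM Tris pH 7.2 with MgCl2, 0.01% Tween-20, 1 mM DTT and 2.5% DMSO, running 4.5 h. Phosphopeptide was captured by IMAP binding reagent for >1 h, then read by fluorescence polarization (ex 531/em 595 nm).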
# Cdk9/cyclinT1, sequence (P50750 whole entry): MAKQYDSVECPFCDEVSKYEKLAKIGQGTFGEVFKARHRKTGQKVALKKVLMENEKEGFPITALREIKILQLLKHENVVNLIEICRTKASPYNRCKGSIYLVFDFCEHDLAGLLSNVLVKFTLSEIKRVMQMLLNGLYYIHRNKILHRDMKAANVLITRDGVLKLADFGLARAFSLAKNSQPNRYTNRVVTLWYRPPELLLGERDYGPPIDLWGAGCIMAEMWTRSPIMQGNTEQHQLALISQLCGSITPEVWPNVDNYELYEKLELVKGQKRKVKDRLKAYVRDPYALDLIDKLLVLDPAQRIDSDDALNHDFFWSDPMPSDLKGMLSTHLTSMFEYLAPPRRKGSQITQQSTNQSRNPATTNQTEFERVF
# Cdk9/cyclinT1, sequence (O60563 whole entry partner): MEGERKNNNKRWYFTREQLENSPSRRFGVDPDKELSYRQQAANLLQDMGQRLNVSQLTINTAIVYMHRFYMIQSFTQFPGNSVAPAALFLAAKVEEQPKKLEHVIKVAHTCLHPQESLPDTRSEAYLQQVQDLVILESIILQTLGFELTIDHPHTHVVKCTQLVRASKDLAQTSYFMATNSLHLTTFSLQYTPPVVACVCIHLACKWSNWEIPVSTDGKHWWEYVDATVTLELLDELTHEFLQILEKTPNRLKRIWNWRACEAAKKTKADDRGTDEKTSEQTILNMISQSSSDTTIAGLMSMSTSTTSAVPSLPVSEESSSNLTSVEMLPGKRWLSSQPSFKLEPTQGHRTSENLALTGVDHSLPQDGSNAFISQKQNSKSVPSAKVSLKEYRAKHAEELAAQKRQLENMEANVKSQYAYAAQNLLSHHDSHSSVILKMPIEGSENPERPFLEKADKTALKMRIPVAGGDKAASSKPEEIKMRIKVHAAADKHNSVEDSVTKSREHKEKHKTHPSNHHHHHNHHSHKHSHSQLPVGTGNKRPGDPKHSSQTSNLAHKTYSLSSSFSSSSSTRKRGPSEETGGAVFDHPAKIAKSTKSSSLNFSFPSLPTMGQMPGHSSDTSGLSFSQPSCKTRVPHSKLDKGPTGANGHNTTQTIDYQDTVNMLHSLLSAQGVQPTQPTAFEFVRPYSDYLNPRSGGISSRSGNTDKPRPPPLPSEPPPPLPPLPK
row,IC50 [µM],SMILES
1,0.00795,"Cc1ncc(NCC2CCOCC2)nc1-c1cc(N[C@H]2CC[C@H](N)CC2)ncc1Cl [Compound 233, trans-N1-(5-chloro-4-(3-methyl-6-((tetrahydro-2H-pyran-4-yl)methyl)aminopyrazin-2-yl)pyridin-2-yl)cyclohexane-1,4-diamine]"
2,0.0618,"CCc1ncc(-c2cc(N[C@H]3CC[C@H](N)CC3)ncc2Cl)nc1NCC1CCOCC1 [Compound 241, trans-N^1-(5-chloro-4-(5-ethyl-6-((tetrahydro-2H-pyran-4-yl)methyl)aminopyrazin-2-yl)pyridin-2-yl)cyclohexane-1,4-diamine]"
3,0.0154,OC[C@H]1CC[C@H](Nc2cc(-c3cncc(NCC4CCOCC4)n3)c(Cl)cn2)CC1 [Compound 242]
4,0.00795,"COCCN[C@H]1CC[C@H](Nc2cc(-c3cncc(NCC4CCOCC4)n3)c(Cl)cn2)CC1 [Compound 243, trans-N1-(5-chloro-4-(6-((tetrahydro-2H-pyran-4-yl)methyl)aminopyrazin-2-yl)pyridin-2-yl)-N4-(2-methoxyethyl)cyclohexane-1,4-diamine]"
5,0.079,"CC(=O)N[C@H]1CC[C@H](Nc2cc(-c3cncc(NCC4CCOCC4)n3)c(Cl)cn2)CC1 [Compound 244, N-(trans-4-(5-chloro-4-(6-((tetrahydro-2H-pyran-4-yl)methyl)aminopyrazin-2-yl)pyridin-2-yl-amino)cyclohexyl)acetamide]"
6,0.0534,CS(=O)(=O)N[C@H]1CC[C@H](Nc2cc(-c3cncc(NCC4CCOCC4)n3)c(Cl)cn2)CC1 [Compound 245]
7,0.0115,NC[C@H]1CC[C@H](Nc2cc(-c3cncc(NCC4CCOCC4)n3)c(Cl)cn2)CC1 [Compound 246]
8,0.0202,CC(=O)NC[C@H]1CC[C@H](Nc2cc(-c3cncc(NCC4CCOCC4)n3)c(Cl)cn2)CC1 [Compound 247]
9,0.0106,CN(CC1CCOCC1)c1cncc(-c2cc(N[C@H]3CC[C@H](N)CC3)ncc2Cl)n1 [Compound 248]
10,0.0318,"CN(CC1CCOCC1)c1cncc(-c2cc(N[C@H]3CC[C@H](CN)CC3)ncc2Cl)n1 [Compound 249, 6-(2-(trans-4-(aminomethyl)cyclohexylamino)-5-chloropyridin-4-yl)-N-methyl-N-((tetrahydro-2H-pyran-4-yl)methyl)pyrazin-2-amine]"
11,0.0284,CN(CC1CCOCC1)c1cncc(-c2cc(N[C@H]3CC[C@H](O)CC3)ncc2Cl)n1 [Compound 250]
12,0.0432,CN(CC1CCOCC1)c1cncc(-c2cc(N[C@H]3CC[C@H](CO)CC3)ncc2Cl)n1 [Compound 251]
13,0.00794,COCCN[C@H]1CC[C@H](Nc2cc(-c3cncc(N(C)CC4CCOCC4)n3)c(Cl)cn2)CC1 [Compound 252]
14,0.00794,"N[C@H]1CC[C@H](Nc2cc(-c3nc(NCC4CCOCC4)ccc3Cl)c(Cl)cn2)CC1 [Compound 253, N2′-(trans-4-aminocyclohexyl)-3,5′-dichloro-N6-((tetrahydro-2H-pyran-4-yl)methyl)-2,4′-bipyridine-2′,6-diamine]"
15,0.00833,"CS(=O)(=O)CCN[C@H]1CC[C@H](Nc2cc(-c3nc(NCC4CCOCC4)ccc3Cl)c(Cl)cn2)CC1 [Compound 254, 3,5′-dichloro-N2′-(trans-4-(2-(methylsulfonyl)ethylamino)cyclohexyl)-N6-((tetrahydro-2H-pyran-4-yl)methyl)-2,4′-bipyridine-2′,6-diamine]"
16,0.0423,"N[C@H]1CC[C@H](Nc2cc(-c3nc(NCC4CCOCC4)cnc3C(F)(F)F)c(Cl)cn2)CC1 [Compound 255, trans-N1-(5-chloro-4-(6-((tetrahydro-2H-pyran-4-yl)methyl)amino-3-(trifluoromethyl)pyrazin-2-yl)pyridin-2-yl)cyclohexane-1,4-diamine]"
17,0.00794,"COCCN[C@H]1CC[C@H](Nc2cc(-c3nc(NCC4CCOCC4)ccc3Cl)c(Cl)cn2)CC1 [Compound 258, 3,5′-dichloro-N2′-(trans-4-(2-methoxyethylamino)cyclohexyl)-N6-((tetrahydro-2H-pyran-4-yl)methyl)-2,4′-bipyridine-2′,6-diamine]"

# Source: US8778951B2, “Heteroaryl compounds and their uses” (Novartis AG, priority 2009, dated 2014)
